Laboratory results reported in the supplement of paper PMC10627819.

Legend:
[1] = tested on: S. pneumoniae D39V; test: Bliss interaction score (quartile over a dose matrix) (fitness difference); higher = more antagonism (negative = synergy)
Procedure, shortened: (§1)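 Growth in each well was taken as OD595 at entry into stationary phase. Dividing by the plate's robust no-drug mean and capping at 1 gave fitness, and single-drug fitness was inferred from the combination data. The Bliss score, observed minus product-expected fitness, is summarised by quartiles over technical, biological and donor/recipient replicates.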

[2] = tested on: B. subtilis 168; test: as above
Procedure, shortened: as §1

[3] = tested on: S. aureus DSM 20231; test: as above
Procedure, shortened: as §1

[4] = tested on: S. aureus Newman; test: as above
Procedure, shortened: as §1

[5] = tested on: S. pneumoniae D39V; test: fitness (endpoint OD595 vs no drug) (fraction); higher = more growth
Procedure, shortened: (§2)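 Fitness compares growth at the stationary-phase transition with the robust mean of no-drug control wells, as a ratio of optical densities. The ratio is capped at 1. Wells of 384-well plates held 30 µl, or 55 µl for S. pneumoniae, inoculated at OD595 0.01. Readings at OD595 every 30 min for 14 h at 37 °C were corrected against the first reading.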

[6] = tested on: B. subtilis 168; test: as above
Procedure, shortened: as §2
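For Bliss interaction score (quartile over a dose matrix) in this document: first quartile when negative (synergy) and third quartile when positive (antagonism).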

C[C@@H]1O[C@@H]1P(=O)(O)O [Fosfomycin] + CCC(C)C1C(=O)NC(=C)C(=O)NC(C(=O)NC(CSCC(C(=O)N1)NC(=O)/C(=C/C)/NC(=O)C(C(C)CC)N)C(=O)NC2C(SCC(NC(=O)CNC(=O)C3CCCN3C2=O)C(=O)NC(CCCCN)C(=O)NC4C(SCC(NC(=O)CNC(=O)C(NC(=O)C(NC(=O)C(NC(=O)CNC4=O)C)CC(C)C)CCSC)C(=O)NC(CC(=O)N)C(=O)NC(CCSC)C(=O)NC(CCCCN)C(=O)NC5C(SCC6C(=O)NC(C(=O)NC(CSC(C(C(=O)N6)NC(=O)C(NC5=O)C)C)C(=O)NC(CO)C(=O)NC(C(C)CC)C(=O)NC(CC7=CN=CN7)C(=O)NC(C(C)C)C(=O)NC(=C)C(=O)NC(CCCCN)C(=O)O)CC8=CN=CN8)C)C)C)CC(C)C [Nisin]
main component drawn
Conditions	Bliss interaction score
[1]	-0.0374
[2]	-0.0482
[3]	0.0654
[4]	-0.0541

fitness, main component drawn
Conditions	partner 0.4275 µg/mL	partner 0.5 µg/mL	partner 0.855 µg/mL	partner 1 µg/mL	partner 1.6 µg/mL	partner 1.71 µg/mL	partner 2 µg/mL	partner 3.2 µg/mL	partner 6.4 µg/mL
[5], first compound 1.25 µg/mL	≥ 1	–	≥ 1	–	0.0178	0.0788	–	0.0247	0.0308
[5], first compound 2.5 µg/mL	0.942	–	0.998	–	0.0062	0.0945	–	0.0256	0.0213
[5], first compound 5 µg/mL	0.852	–	0.889	–	0.0119	0.111	–	0.0102	0.0062
[6], first compound 1.562 µg/mL	–	0.712	–	0.609	–	–	0.45	–	–
[6], first compound 3.124 µg/mL	–	0.59	–	0.542	–	–	0.368	–	–
[6], first compound 6.248 µg/mL	–	0.463	–	0.397	–	–	0.285	–	–

fitness, [6], one replicate, main component drawn
Conditions	partner 1.25 µg/mL	partner 1.6 µg/mL	partner 2.5 µg/mL	partner 3.2 µg/mL	partner 4 µg/mL	partner 5 µg/mL	partner 6.4 µg/mL	partner 8 µg/mL	partner 16 µg/mL
first compound 1.562 µg/mL	0.687	0.577	0.527	0.0483	0.0272	0.0426	0.0336	0.0224	0.0164
first compound 3.124 µg/mL	0.613	0.469	0.303	0.024	0.0425	0.0431	0.0247	0.0352	0.0164
first compound 6.248 µg/mL	0.513	0.298	0.127	0.0136	0.0038	0.0232	0.0329	0.007	0.0049

C[C@@H]1O[C@@H]1P(=O)(O)O [Fosfomycin] + CN(C)C(=O)C(CCN1CCC(O)(c2ccc(Cl)cc2)CC1)(c1ccccc1)c1ccccc1 [Loperamide]
Conditions	Bliss interaction score
[1]	0.0632
[2]	0.305
[3]	0.116
[4]	-0.0773

fitness
Conditions	first compound 1.25 µg/mL	first compound 1.562 µg/mL	first compound 2.5 µg/mL	first compound 3.124 µg/mL	first compound 5 µg/mL	first compound 6.248 µg/mL
[5], partner 17.14 µg/mL	0.957	–	0.952	–	0.722	–
[5], partner 20 µg/mL	≥ 1	–	0.985	–	0.81	–
[5], partner 34.28 µg/mL	0.954	–	0.961	–	0.74	–
[5], partner 40 µg/mL	≥ 1	–	≥ 1	–	0.77	–
[6], partner 25 µg/mL	–	0.743	–	0.625	–	0.534
[6], partner 100 µg/mL	–	0.0187	–	0.0366	–	0.011

[5], partner 68.57 µg/mL, one replicate
Conditions	fitness
first compound 1.25 µg/mL	0.969
first compound 2.5 µg/mL	0.515
first compound 5 µg/mL	0.861

C[C@@H]1O[C@@H]1P(=O)(O)O [Fosfomycin] + C[C@H]1COc2c(N3CCN(C)CC3)c(F)cc3c(=O)c(C(=O)O)cn1c23 [Levofloxacin]
Conditions	Bliss interaction score
[1]	0.0613
[2]	-0.0453
[3]	0.0688
[4]	0.0484

Conditions	fitness
[5], first compound 1.25 µg/mL, partner 0.1725 µg/mL	0.953
[5], first compound 1.25 µg/mL, partner 0.2 µg/mL	0.936
[5], first compound 1.25 µg/mL, partner 0.345 µg/mL	0.86
[5], first compound 1.25 µg/mL, partner 0.4 µg/mL	0.857
[5], first compound 1.25 µg/mL, partner 0.69 µg/mL	0.633
[5], first compound 2.5 µg/mL, partner 0.1725 µg/mL	0.88
[5], first compound 2.5 µg/mL, partner 0.2 µg/mL	0.892
[5], first compound 2.5 µg/mL, partner 0.345 µg/mL	0.735
[5], first compound 2.5 µg/mL, partner 0.4 µg/mL	0.823
[5], first compound 2.5 µg/mL, partner 0.69 µg/mL	0.574
[5], first compound 5 µg/mL, partner 0.1725 µg/mL	0.821
[5], first compound 5 µg/mL, partner 0.2 µg/mL	0.794
[5], first compound 5 µg/mL, partner 0.345 µg/mL	0.728
[5], first compound 5 µg/mL, partner 0.4 µg/mL	0.697
[5], first compound 5 µg/mL, partner 0.69 µg/mL	0.536
[5], first compound 5 µg/mL, partner 0.8 µg/mL	0.341
[6], first compound 1.562 µg/mL, partner 0.002 µg/mL	0.717
[6], first compound 1.562 µg/mL, partner 0.0039 µg/mL	0.724
[6], first compound 1.562 µg/mL, partner 0.0312 µg/mL	0.0432
[6], first compound 1.562 µg/mL, partner 0.0625 µg/mL	0.0523
[6], first compound 1.562 µg/mL, partner 0.125 µg/mL	0.0479
[6], first compound 3.124 µg/mL, partner 0.002 µg/mL	0.629
[6], first compound 3.124 µg/mL, partner 0.0039 µg/mL	0.617
[6], first compound 3.124 µg/mL, partner 0.0312 µg/mL	0.0352
[6], first compound 3.124 µg/mL, partner 0.0625 µg/mL	0.0394
[6], first compound 3.124 µg/mL, partner 0.125 µg/mL	0.0439
[6], first compound 6.248 µg/mL, partner 0.002 µg/mL	0.525
[6], first compound 6.248 µg/mL, partner 0.0039 µg/mL	0.516
[6], first compound 6.248 µg/mL, partner 0.0312 µg/mL	0.0328
[6], first compound 6.248 µg/mL, partner 0.0625 µg/mL	0.0306
[6], first compound 6.248 µg/mL, partner 0.125 µg/mL	0.023

fitness, [6], one replicate
Conditions	first compound 1.562 µg/mL	first compound 3.124 µg/mL	first compound 6.248 µg/mL
partner 0.001 µg/mL	0.864	0.738	0.599
partner 0.0078 µg/mL	0.75	0.643	0.492
